Laboratory results from US10703756B2, “Pyrrolo[2,3-D]pyrimidinyl, pyrrolo[2,3-B]pyrazinyl, pyrrolo[2,3-B]pyridinyl acrylamides and epoxides thereof” (Pfizer Inc., priority 2015, dated 2020).

How the values were obtained:
[1] = Stability of JAK3 Covalent Inhibitors in Human Whole Blood; type: in vitro ADME; settings: both sexes, 1 μM test compound, 37° C., 180 min incubation, read-out: Human blood stability t1/2
Procedure: Stability of JAK3 Covalent Inhibitors in Rat and Human Whole Blood
Rat blood was collected from 3 male Sprague-Dawley rats (200-250 g, Charles River Laboratories) and pooled for each study. Human blood was collected from healthy subjects at the Occupational Health & Wellness Center at Pfizer, Groton, Conn. and pooled for each study. Both rat and human blood was collected freshly into K2-EDTA tubes and kept on ice. An aliquot of the blood was transferred to microtubes and pre-warmed for 10 min at 37° C. using a heat block. The test compound was then added (1 μM final concentration) and the incubation was continued for 180 min at 37° C. in duplicates. An aliquot of the incubation mixture was removed at designated time points during the course of the incubation, mixed with an aliquot of acetonitrile containing an internal standard, vortexed and centrifuged. The resulting supernatants were removed and subjected to LC-MS/MS analyses to determine parent compound concentrations. Peak area ratios of the parent compound vs the internal standard were used to determine the % of parent compound remaining vs incubation time.

JAK3 enzyme [2] = target: T1, JAK3 enzyme (Homo sapiens, UniProt P52333); experiment: JAK Caliper Enzyme Assay at 4 μM ATP; type: biochemical
T1 sequence (P52333 1-1124): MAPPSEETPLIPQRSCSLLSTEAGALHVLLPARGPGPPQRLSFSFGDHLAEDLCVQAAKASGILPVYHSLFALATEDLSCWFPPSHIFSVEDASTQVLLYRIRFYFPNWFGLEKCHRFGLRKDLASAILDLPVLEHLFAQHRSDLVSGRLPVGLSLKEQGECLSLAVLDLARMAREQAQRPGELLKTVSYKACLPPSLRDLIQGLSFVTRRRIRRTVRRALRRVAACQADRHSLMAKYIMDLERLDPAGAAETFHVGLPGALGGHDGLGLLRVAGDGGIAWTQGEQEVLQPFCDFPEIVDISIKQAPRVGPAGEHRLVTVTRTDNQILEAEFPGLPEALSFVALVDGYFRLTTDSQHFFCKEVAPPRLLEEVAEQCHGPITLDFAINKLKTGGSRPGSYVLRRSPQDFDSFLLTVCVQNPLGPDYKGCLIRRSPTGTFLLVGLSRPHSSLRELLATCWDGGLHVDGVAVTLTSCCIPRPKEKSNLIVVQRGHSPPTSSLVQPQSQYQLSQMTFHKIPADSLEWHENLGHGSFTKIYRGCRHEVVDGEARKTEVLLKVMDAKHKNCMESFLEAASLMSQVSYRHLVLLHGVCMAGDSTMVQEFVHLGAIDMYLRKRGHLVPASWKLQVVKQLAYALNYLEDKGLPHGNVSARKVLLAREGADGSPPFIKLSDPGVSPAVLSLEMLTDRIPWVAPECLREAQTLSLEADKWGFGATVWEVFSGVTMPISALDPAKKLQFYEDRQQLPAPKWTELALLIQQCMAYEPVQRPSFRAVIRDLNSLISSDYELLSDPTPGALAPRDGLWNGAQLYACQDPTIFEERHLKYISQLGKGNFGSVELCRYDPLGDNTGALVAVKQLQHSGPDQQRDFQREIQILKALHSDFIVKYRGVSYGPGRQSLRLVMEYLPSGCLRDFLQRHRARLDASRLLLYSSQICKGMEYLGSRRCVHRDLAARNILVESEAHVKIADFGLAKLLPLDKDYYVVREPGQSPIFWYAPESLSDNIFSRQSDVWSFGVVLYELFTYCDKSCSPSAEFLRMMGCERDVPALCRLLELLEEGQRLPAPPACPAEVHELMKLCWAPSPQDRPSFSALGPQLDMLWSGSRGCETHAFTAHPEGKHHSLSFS
Summary of the method: (§1)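 Compound tested as 11-point half-log DMSO dilution series (top 600 μM in DMSO, a dilution-plate level). Enzyme level and time set for 20%-30% peptide phosphorylation; phosphorylated and unphosphorylated peptide separated and quantified by Caliper LC3000 mobility shift.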

JAK3 enzyme [3] = target: T1, JAK3 enzyme; experiment: JAK Caliper Enzyme Assay at 1 mM ATP; type: biochemical
Summary of the method: as §1

[4] = system: IL-15 induced P-STAT5 in human PBMC; experiment: PBMC IL-15 Induced P-STAT5; type: cell-based; settings: human PBMC, IL-15 final 41 ng/mL; read-out: PBMC IL15_pSTAT5_IC50
Summary of the method: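 Thawed human PBMC, rested in human plasma, were preincubated 15 min at 37 °C with compound (0.2% DMSO), then stimulated 15 min with IL-15 at 41 ng/mL final. After paraformaldehyde fixation and methanol permeabilisation, Alexa Fluor 647 anti-STAT5 staining overnight at 4 °C was analysed by flow cytometry on total lymphocytes.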

SMILES	half-life at 1 μM [1]	IC50 (JAK3 enzyme [2])	IC50 (JAK3 enzyme [3])	IC50 [4]
C=CC(=O)N1CC[C@H](COc2cnc3[nH]cc(C(=O)N[C@@H](C)COC)c3n2)C1 (single isomer, unassigned) [Example 11]	3.46 h	1.61 nM	308 nM	
C=CC(=O)N1C[C@H](Nc2cnc3[nH]cc(C(=O)N[C@@H](C)COC)c3n2)CC[C@@H]1C (single isomer, unassigned) [Example 66]	> 6 h	6.21 nM	412 nM	
C=CC(=O)N1C[C@@H](Nc2cnc3[nH]cc(C(=O)N[C@H](C)COC)c3n2)CC[C@H]1C (single isomer, unassigned) [Example 70]	> 6 h	9.1 nM	1390 nM	
C=CC(=O)N1C[C@H](Oc2cnc3[nH]cc(C(=O)N[C@@H](C)COC)c3n2)CC[C@@H]1C (single isomer, unassigned) [Example 81]	> 6 h		76.9 nM	
C=CC(=O)N1CC[C@H](Nc2cnc3c(n2)c(C(=O)NCC)cn3C)C[C@@H]1C (single isomer, unassigned) [Example 350]	> 6 h	32.1 nM	4370 nM	
C=CC(=O)N1CC[C@@H](Nc2cnc3c(n2)c(C(=O)NCC)cn3C)C[C@H]1C (single isomer, unassigned) [Example 351]	5.52 h	2.88 nM	838 nM	
C=CC(=O)N1CC[C@H](Nc2cnc3[nH]cc(C(=O)NC4CC(F)(F)C4)c3n2)[C@H](OC)C1 [Example 277, 2-{[(3R,4S)-1-acryloyl-3-methoxypiperidin-4-yl]amino}-N-(3,3-difluorocyclobutyl)-5H-pyrrolo[2,3-b]pyrazine-7-carboxamide]		0.59 nM	155 nM	2320 nM
C=CC(=O)N1CCC(C)(Nc2cnc3[nH]cc(C(=O)NCC)c3n2)CC1 [Example 281, 2-[(1-acryloyl-4-methylpiperidin-4-yl)amino]-N-ethyl-5H-pyrrolo[2,3-b]pyrazine-7-carboxamide]		1.02 nM	73 nM	1220 nM
C=CC(=O)N1CCN(c2cnc3[nH]cc(C(=O)NCC(C)(C)C)c3n2)CC1(C)C [Example 285, 2-(4-acryloyl-3,3-dimethylpiperazin-1-yl)-N-(2,2-dimethylpropyl)-5H-pyrrolo[2,3-b]pyrazine-7-carboxamide]		4.05 nM	515 nM	1790 nM
C=CC(=O)N1CCN(c2cnc3[nH]cc(C(=O)NC4CCC4)c3n2)CC1(C)C [Example 289, 2-(4-acryloyl-3,3-dimethylpiperazin-1-yl)-N-cyclobutyl-5H-pyrrolo[2,3-b]pyrazine-7-carboxamide]		1.29 nM	209 nM	454 nM
C=CC(=O)N1CC[C@H](Nc2cnc3[nH]cc(C(=O)NC[C@H](C)CC(F)(F)F)c3n2)[C@H](OC)C1 [Example 294, 2-[((3R,4S)-1-acryloyl-3-methoxypiperidin-4-yl)amino]-N-([2R]-4,4,4-trifluoro-2-methylbutyl)-5H-pyrrolo[2,3-b]pyrazine-7-carboxamide]		1.16 nM	62 nM	575 nM
C=CC(=O)N1CCC(C)(Nc2cnc3[nH]cc(C(=O)NCC(C)(F)F)c3n2)CC1 [Example 296, 2-[(1-acryloyl-4-methylpiperidin-4-yl)amino]-N-(2,2-difluoropropyl)-5H-pyrrolo[2,3-b]pyrazine-7-carboxamide]		0.519 nM	57 nM	609 nM
C=CC(=O)N1CC[C@@H](Nc2cnc3[nH]cc(C(=O)NCC(C)(C)C)c3n2)[C@@H](OC)C1 [Example 300, 2-{[(3S,4R)-1-acryloyl-3-methoxypiperidin-4-yl]amino}-N-(2,2-dimethylpropyl)-5H-pyrrolo[2,3-b]pyrazine-7-carboxamide]		0.69 nM	92 nM	700 nM
C=CC(=O)N1CCN(c2cnc3[nH]cc(C(=O)NCC4(O)CCC(F)(F)CC4)c3n2)C[C@@H]1CC(C)C [Example 302, 2-[(3S)-4-acryloyl-3-(2-methylpropyl)piperazin-1-yl]-N-[(4,4-difluoro-1-hydroxycyclohexyl)methyl]-5H-pyrrolo[2,3-b]pyrazine-7-carboxamide]		2.89 nM	385 nM	1190 nM
C=CC(=O)N1CCC(C)(Nc2cnc3[nH]cc(C(=O)NCC4CC(F)(F)C4)c3n2)CC1 [Example 306, 2-[(1-acryloyl-4-methylpiperidin-4-yl)amino]-N-[(3,3-difluorocyclobutyl)methyl]-5H-pyrrolo[2,3-b]pyrazine-7-carboxamide]		0.705 nM	107 nM	1570 nM
C=CC(=O)N1CCN(c2cnc3[nH]cc(C(=O)NCC)c3n2)CC1(C)C [Example 307, 2-(4-acryloyl-3,3-dimethylpiperazin-1-yl)-N-ethyl-5H-pyrrolo[2,3-b]pyrazine-7-carboxamide]		9.82 nM	1080 nM	2130 nM
C=CC(=O)N1CC[C@@H](Nc2cnc3[nH]cc(C(=O)NCC4CC(F)(F)C4)c3n2)[C@@H](OC)C1 [Example 309, 2-{[(3S,4R)-1-acryloyl-3-methoxypiperidin-4-yl]amino}-N-[(3,3-difluorocyclobutyl)methyl]-5H-pyrrolo[2,3-b]pyrazine-7-carboxamide]		0.898 nM	59 nM	526 nM
C=CC(=O)N1CCN(c2cnc3[nH]cc(C(=O)NCC(F)(F)F)c3n2)C[C@@H]1CC(C)C [Example 311, 2-[(3S)-4-acryloyl-3-(2-methylpropyl)piperazin-1-yl]-N-(2,2,2-trifluoroethyl)-5H-pyrrolo[2,3-b]pyrazine-7-carboxamide]		1.78 nM	223 nM	586 nM
C=CC(=O)N1CC[C@H](Nc2cnc3[nH]cc(C(=O)NCC4CC(F)(F)C4)c3n2)[C@H](OC)C1 [Example 322, 2-{[(3R,4S)-1-acryloyl-3-methoxypiperidin-4-yl]amino}-N-[(3,3-difluorocyclobutyl)methyl]-5H-pyrrolo[2,3-b]pyrazine-7-carboxamide]		0.269 nM	47 nM	428 nM
C=CC(=O)N1CC[C@@H](Nc2cnc3[nH]cc(C(=O)NC[C@H](C)CC(F)(F)F)c3n2)[C@@H](OC)C1 [Example 323, 2-{[(3S,4R)-1-acryloyl-3-methoxypiperidin-4-yl]amino}-N-[(2R)-4,4,4-trifluoro-2-methylbutyl]-5H-pyrrolo[2,3-b]pyrazine-7-carboxamide]		0.392 nM	69 nM	430 nM
C=CC(=O)N1CCC(C)(Nc2cnc3[nH]cc(C(=O)NCCCC(F)(F)F)c3n2)CC1 [Example 333, 2-[(1-acryloyl-4-methylpiperidin-4-yl)amino]-N-(4,4,4-trifluorobutyl)-5H-pyrrolo[2,3-b]pyrazine-7-carboxamide]		0.307 nM	44 nM	774 nM
C=CC(=O)N1CCC(C)(Nc2cnc3[nH]cc(C(=O)N[C@H](C)COC)c3n2)CC1 [Example 335, 2-[(1-acryloyl-4-methylpiperidin-4-yl)amino]-N-[(2R)-1-methoxypropan-2-yl]-5H-pyrrolo[2,3-b]pyrazine-7-carboxamide]		0.262 nM	57 nM	849 nM
